Data from PubChem BioAssay (NCI).
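Following 48 hours of exposure in 96-well plates, responses at five concentrations were used to interpolate endpoints linearly. GI50 marks 50% less growth. TGI denotes the concentration required for complete inhibition of growth.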

Key:
Assay in all cases: inhibition of tumour cell growth, NCI panel, 48 h
[1] = system: A549 NSCLC
[2] = system: CAKI-1 renal
[3] = system: CCRF-CEM leukemia
[4] = system: EKVX NSCLC
[5] = system: HOP-92 NSCLC
[6] = system: NCI-H226 lung
[7] = system: OVCAR-5 ovarian
[8] = system: SF-268 CNS
[9] = system: SNB-19 CNS
[10] = system: UO-31 renal

## COc1ccc(C2=Nc3ccccc3NC(=O)C2)cc1
[1]
  TGI: > 100 µM
[2]
  TGI: > 100 µM
[3]
  TGI: > 100 µM
[4]
  TGI: > 100 µM
[5]
  TGI: 54 µM
[6]
  TGI: > 100 µM
[7]
  TGI: > 100 µM
[8]
  TGI: 78.1 µM
[9]
  TGI: > 100 µM
[10]
  TGI: > 100 µM

## CCCNC1=C(C(=O)OCC)C(=O)CO1
[1]
  TGI: > 100 µM
[2]
  TGI: > 100 µM
[3]
  TGI: > 100 µM
[4]
  TGI: > 100 µM
[5]
  TGI: > 100 µM
[6]
  TGI: > 100 µM
[7]
  TGI: > 100 µM
[8]
  TGI: > 100 µM
[9]
  TGI: > 100 µM
[10]
  TGI: > 100 µM

## COc1cc2c(c(OC)c1)C1c3ccccc3NC(=O)N1CC2 (centres undefined)
[1]
  GI50: 4.59 µM
  TGI: > 100 µM
[2]
  GI50: 4.62 µM
  TGI: > 100 µM
[3]
  GI50: 2.67 µM
  TGI: > 100 µM
[4]
  GI50: 4.79 µM
  TGI: > 100 µM
[5]
  GI50: 7.25 µM
  TGI: > 100 µM
[6]
  GI50: 7.24 µM
  TGI: > 100 µM
[7]
  GI50: 4.96 µM
  TGI: > 100 µM
[8]
  GI50: 7.02 µM
  TGI: > 100 µM
[9]
  GI50: 7 µM
  TGI: > 100 µM
[10]
  GI50: 2.81 µM
  TGI: 85.4 µM

## O=C(N/C(=C\c1ccc2c(c1)OCO2)c1nc2ccccc2[nH]1)c1ccccc1
[1]
  TGI: > 100 µM
[2]
  TGI: > 100 µM
[3]
  TGI: > 89.2 µM
[4]
  TGI: > 100 µM
[5]
  TGI: 58.7 µM
[6]
  TGI: 77.1 µM
[7]
  TGI: > 100 µM
[8]
  TGI: > 100 µM
[9]
  TGI: > 100 µM
[10]
  TGI: 99.8 µM

## CCc1ccccc1NC(=O)C(=O)CC(=O)c1sc(Nc2ccccc2)nc1C
[1]
  TGI: > 100 µM
[2]
  TGI: > 100 µM
[3]
  TGI: > 100 µM
[4]
  TGI: > 100 µM
[5]
  TGI: > 100 µM
[6]
  TGI: > 100 µM
[7]
  TGI: > 100 µM
[8]
  TGI: > 100 µM
[9]
  TGI: > 100 µM
[10]
  TGI: > 100 µM

## O=c1cc(-c2ccccc2)[nH]c2ccccc12
[1]
  GI50: 1.88 µM
  TGI: > 100 µM
[2]
  GI50: 0.825 µM
  TGI: > 100 µM
[3]
  GI50: 0.738 µM
  TGI: > 100 µM
[4]
  GI50: 8.95 µM
  TGI: > 100 µM
[5]
  GI50: 0.571 µM
  TGI: > 100 µM
[6]
  GI50: 7.4 µM
  TGI: > 100 µM
[7]
  TGI: > 100 µM
[8]
  GI50: 3.18 µM
  TGI: > 100 µM
[9]
  GI50: 0.881 µM
  TGI: > 100 µM
[10]
  GI50: 3.28 µM
  TGI: > 100 µM

## OC(c1cc(-c2ccccc2)nc2ccc(Cl)cc12)C1CCCCN1 (centres undefined)
[1]
  GI50: 3.07 µM
  TGI: 8.21 µM
[2]
  GI50: 2.1 µM
  TGI: 5.9 µM
[3]
  GI50: 2.59 µM
  TGI: 7.69 µM
[4]
  GI50: 2.36 µM
  TGI: 6.27 µM
[5]
  GI50: 2.02 µM
  TGI: 6.87 µM
[6]
  GI50: 2.19 µM
  TGI: 4.64 µM
[7]
  GI50: 1.84 µM
  TGI: 4.3 µM
[8]
  GI50: 3.06 µM
  TGI: 14 µM
[9]
  GI50: 1.99 µM
  TGI: 4.2 µM
[10]
  GI50: 1.73 µM
  TGI: 4.19 µM

## CN1CCC(n2cnc(-c3ccc(F)cc3)c2-c2ccnc(NCCO)n2)CC1
[1]
  GI50: 11.9 µM
  TGI: > 25 µM
[2]
  GI50: > 17.9 µM
  TGI: > 25 µM
[3]
  GI50: > 25 µM
  TGI: > 25 µM
[4]
  GI50: > 23.2 µM
  TGI: > 25 µM
[5]
  GI50: 5.43 µM
  TGI: > 25 µM
[6]
  GI50: > 25 µM
  TGI: > 25 µM
[7]
  GI50: > 25 µM
  TGI: > 25 µM
[8]
  GI50: 18.2 µM
  TGI: > 25 µM
[9]
  GI50: > 25 µM
  TGI: > 25 µM
[10]
  GI50: 13.6 µM
  TGI: > 25 µM
